Data published in patent publication US20040076968A1, “Method for detecting pre-disposition to hepatotoxicity” (priority 2000, published 2004).

Experiments:
[1] = human subjects; cited from earlier work
[2] = test system: UGT1A gene 3′UTR (exon 5); assay: Association of the UGT1A 3′UTR polymorphism with liver function abnormality in tolcapone-treated patients (case-control genotyping); assay type: in vivo, human; conditions: UGT1A-3′_908
Procedure: (§1) Disease severity had already been controlled for by the original study inclusion criteria.
(§2) In the KTC format, the generation of double-stranded amplification product is monitored using a DNA intercalating dye and a thermal cycler which has a fluorescence-detecting CCD camera attached (PE-Bipsystems GeneAmp 5700 Sequence Detection System). Fluorescence in each well of the PCR amplification plate is measured at each cycle of annealing and denaturation. The cycle at which the relative fluorescence reached a threshold of 0.5 using the SDS sofiware from PE-Biosystems was defined as the Ct.
(§3) The amplification reactions were designed to be allele-specific, so that the amplification reaction was positive if the polymorphism was present and the amplification reaction was negative if the polymorphism was absent. For each bi-allelic polymorphism, one well of the amplification plate was set up to be specific for allele 1 and a second well was set up to be specific for allele 2. For each polymorphism to be detected, three primers were designed—two allele-specific primers and one common primer (Table 3). Reactions for allele 1 contained allele 1-specific primer and the common primer and reactions for allele 2 contained allele 2-specific primer and the common primer.
(§4) The Ct of each amplification reaction was determined and the difference between the Ct for allele 1 and allele 2 (delta Ct) was, used as the assay result. Samples with delta Cts between −3.0 and 3.0 were considered heterozygous (A1/A2). Samples with delta Cts below −3.0 were considered homozygous for A1 (A1/A1); samples with delta Cts above 3.0 were considered homozygous for A2 (A2/A2).
(§5) The patient samples were divided into two groups.
(§6) For each genotype, the following analyses were performed:
(§7) a) Analysis of the entire genotype: patients were classified according to the following three categories: homozygous 1/1 (two copies of allele 1 and no copies of allele 2), heterozygous 1/2 (one copy of allele 1 and one copy of allele 2) or homozygous 2/2 (no copies of allele 1 and two copies of allele 2). Analysis was conducted to assess whether there were differences in the proportion of case patients in each of these groups, compared with the proportion of control patients. The Cochran-Maentel-Hanszel (CMH) test was applied to the data presented in a 2-by-3 table (the two columns indicating presence or absence of liver function abnormality and the three rows indicating the three categories of the genotype).
(§8) b) Analysis of alleles: the presence of allele 1 or 2 in case patients was compared to the presence of the respective allele in the control patients.
c) Analysis of allele counts: this analysis was conducted to compare the distribution of the alleles in patients with liver function abnormality to that of patients without abnormality. The total number of copies of allele 1 among patients with liver function abnormality was compared with the total number of copies of allele 2 among these case patients. The CMH test was applied to the data using a 2-by-2 table (the two columns indicating presence or absence of liver function abnormality and the two rows indicating the two allele counts).
All markers showing significant association to elevated liver transaminases corresponded to SNPs in the UGT1 genes.

UGT1A6 gene = assay: Association of UGT1A6 polymorphisms with liver function abnormality in tolcapone-treated patients (case-control genotyping); assay type: in vivo, human
Procedure: as §1, §2, §3, §4
For all other single nucleotide polymorphisms (SNPs) discovery and genotyping was done by double-stranded DNA sequencing using an ABI capillary sequencer and Big Dye chemistry (ABI). The primers used to amplify all exons are shown below and were also used as sequencing primers. Publicly available genomic sequences were used as references for primer design. All polymorphisms were targeted with these pairs-of-primer sets:
as §5, §6, §7, §8
c) Analysis of allele counts: this analysis was conducted to compare the distribution of the alleles in patients with liver function abnormality to that of patients without abnormality. The total number of copies of allele 1 among patients with liver function abnormality was compared with the total number of copies of allele 2 among these case patients.

Cc1ccc(C(=O)c2cc(O)c(O)c([N+](=O)[O-])c2)cc1 [tolcapone]
main pathway of elimination from the body [1]: glucuronidation | n (%) of patients ([2]; Allele C Absent, Liver Function Abnormality Absent): 14 (5.1%) | n (%) of patients ([2]; Allele C Absent, Liver Function Abnormality Present): 4 (3.0%) | n (%) of patients ([2]; Allele C Present, Liver Function Abnormality Absent): 260 (94.9%) | n (%) of patients ([2]; Allele C Present, Liver Function Abnormality Present): 131 (97.0%) | n (%) of patients ([2]; Allele G Absent, Liver Function Abnormality Absent): 163 (59.5%) | n (%) of patients ([2]; Allele G Absent, Liver Function Abnormality Present): 101 (74.8%) | n (%) of patients ([2]; Allele G Present, Liver Function Abnormality Absent): 111 (40.5%) | n (%) of patients ([2]; Allele G Present, Liver Function Abnormality Present): 34 (25.2%) | n (%) of allele copies ([2]; Count Allele C, Liver Function Abnormality Absent): 423 (77.2%) | n (%) of allele copies ([2]; Count Allele C, Liver Function Abnormality Present): 232 (85.9%) | n (%) of allele copies ([2]; Count Allele G, Liver Function Abnormality Absent): 125 (22.8%) | n (%) of allele copies ([2]; Count Allele G, Liver Function Abnormality Present): 38 (14.1%) | n (%) of patients ([2]; Genotype Heterozygous G/C, Liver Function Abnormality Absent): 97 (35.4%) | n (%) of patients ([2]; Genotype Heterozygous G/C, Liver Function Abnormality Present): 30 (22.2%) | n (%) of patients ([2]; Genotype Homozygous C/C, Liver Function Abnormality Absent): 163 (59.5%) | n (%) of patients ([2]; Genotype Homozygous C/C, Liver Function Abnormality Present): 101 (74.8%) | n (%) of patients ([2]; Genotype Homozygous G/G, Liver Function Abnormality Absent): 14 (5.1%) | n (%) of patients ([2]; Genotype Homozygous G/G, Liver Function Abnormality Present): 4 (3.0%) | n (%) of patients (UGT1A6 gene; UGT1A6_232 Ser7Ala, Allele G Absent, Liver Function Abnormality Absent): 112 (42.1%) | n (%) of patients (UGT1A6 gene; UGT1A6_232 Ser7Ala, Allele G Absent, Liver Function Abnormality Present): 40 (30.5%) | n (%) of patients (UGT1A6 gene; UGT1A6_232 Ser7Ala, Allele G Present, Liver Function Abnormality Absent): 154 (57.9%) | n (%) of patients (UGT1A6 gene; UGT1A6_232 Ser7Ala, Allele G Present, Liver Function Abnormality Present): 91 (69.5%) | n (%) of patients (UGT1A6 gene; UGT1A6_232 Ser7Ala, Allele T Absent, Liver Function Abnormality Absent): 31 (11.7%) | n (%) of patients (UGT1A6 gene; UGT1A6_232 Ser7Ala, Allele T Absent, Liver Function Abnormality Present): 28 (21.4%) | n (%) of patients (UGT1A6 gene; UGT1A6_232 Ser7Ala, Allele T Present, Liver Function Abnormality Absent): 235 (88.3%) | n (%) of patients (UGT1A6 gene; UGT1A6_232 Ser7Ala, Allele T Present, Liver Function Abnormality Present): 103 (78.6%) | n (%) of allele copies (UGT1A6 gene; UGT1A6_232 Ser7Ala, Count Allele G, Liver Function Abnormality Absent): 185 (34.8%) | n (%) of allele copies (UGT1A6 gene; UGT1A6_232 Ser7Ala, Count Allele G, Liver Function Abnormality Present): 119 (45.4%) | n (%) of allele copies (UGT1A6 gene; UGT1A6_232 Ser7Ala, Count Allele T, Liver Function Abnormality Absent): 347 (65.2%) | n (%) of allele copies (UGT1A6 gene; UGT1A6_232 Ser7Ala, Count Allele T, Liver Function Abnormality Present): 143 (54.6%) | n (%) of patients (UGT1A6 gene; UGT1A6_232 Ser7Ala, Genotype Heterozygous T/G, Liver Function Abnormality Absent): 123 (46.2%) | n (%) of patients (UGT1A6 gene; UGT1A6_232 Ser7Ala, Genotype Heterozygous T/G, Liver Function Abnormality Present): 63 (48.1%) | n (%) of patients (UGT1A6 gene; UGT1A6_232 Ser7Ala, Genotype Homozygous G/G, Liver Function Abnormality Absent): 31 (11.7%) | n (%) of patients (UGT1A6 gene; UGT1A6_232 Ser7Ala, Genotype Homozygous G/G, Liver Function Abnormality Present): 28 (21.4%) | n (%) of patients (UGT1A6 gene; UGT1A6_232 Ser7Ala, Genotype Homozygous T/T, Liver Function Abnormality Absent): 112 (42.1%) | n (%) of patients (UGT1A6 gene; UGT1A6_232 Ser7Ala, Genotype Homozygous T/T, Liver Function Abnormality Present): 40 (30.5%) | n (%) of patients (UGT1A6 gene; UGT1A6_528 A/G, Allele A Absent, Liver Function Abnormality Absent): 22 (8.3%) | n (%) of patients (UGT1A6 gene; UGT1A6_528 A/G, Allele A Absent, Liver Function Abnormality Present): 26 (20.0%) | n (%) of patients (UGT1A6 gene; UGT1A6_528 A/G, Allele A Present, Liver Function Abnormality Absent): 243 (91.7%) | n (%) of patients (UGT1A6 gene; UGT1A6_528 A/G, Allele A Present, Liver Function Abnormality Present): 104 (80.0%) | n (%) of patients (UGT1A6 gene; UGT1A6_528 A/G, Allele G Absent, Liver Function Abnormality Absent): 129 (48.7%) | n (%) of patients (UGT1A6 gene; UGT1A6_528 A/G, Allele G Absent, Liver Function Abnormality Present): 44 (33.8%) | n (%) of patients (UGT1A6 gene; UGT1A6_528 A/G, Allele G Present, Liver Function Abnormality Absent): 136 (51.3%) | n (%) of patients (UGT1A6 gene; UGT1A6_528 A/G, Allele G Present, Liver Function Abnormality Present): 86 (66.2%)
